Measurements taken from patent US20220281930A1, “COMPOSITIONS AND METHODS FOR THE TREATMENT OF PATHOLOGICAL PAIN AND ITCH” (DUKE UNIVERSITY, priority 2019, published 2022).

Key:
neuronal [Cl—]i = test: Clomeleon chloride imaging in rat primary cortical neurons; format: cell-based
Protocol: Chloride imaging of primary cultured cortical neurons was conducted as previously described (Kuner and Augustine, 2000, Neuron 27:447-459; Liedtke et al., 2013, Small 9:1066-1075; Yeo et al., 2009, J Neurosci 29:14652-14662). A Clomeleon expression plasmid was transfected into primary cortical neurons by electroporation (Amaxa Nucleofector Device). Transfected neurons were verified by yellow fluorescent protein (YFP) fluorescence, and ratiometric images (excitation at λ=434 nm, dual emission at λ=485 and 535 nm; for resting chloride, six stable frames at […] were captured, which were averaged) were acquired using RATIOTOOL program. Calibration of Clomeleon signals (535 nm/485 nm emission ratio) was performed by using tributyltin-nigericin to establish a standard curve, which was then normalized for measured intraneuronal pH to take into account the pH sensitivity of Clomeleon.

[1] = system: inflammatory pain, evoked by peripheral tissue injection of CFA; test: CFA inflammatory pain model; format: in vivo, mouse
Protocol: For pain-related behavior, mechanical allodynia was assessed with von Frey filaments (Ugo Basile, Italy). The mice were placed on a 5×5-mm wire-mesh grid floor in individual compartments to avoid visual stimulation and allowed to adapt for 0.5 h prior to the von Frey test. The von Frey filament was then applied to the middle of the plantar surface of the hind paw with 5 g force. The withdrawal responses following the hind paw stimulation were measured at least three times, and the mechanical allodynia, which was defined as an increase in the number of withdrawal responses to the stimulation, was compared. In addition, paws were stimulated with heat from underneath applied by an infrared beam (Hargreaves' test apparatus, IR level 40; Ugo Basile), and withdrawal latencies were recorded. […] Thus, in vivo, KP functions as an analgesic when administered systemically in injury-related pain models.

[2] = system: DNFB chronic contact dermatitis model; test: DNFB chronic contact dermatitis scratching behavior; format: in vivo, mouse; settings: daily i.p. 30 mg/kg
Protocol: To assess scratching behavior as a behavioral correlate of itch, mice were shaved at the dorsal neck where topical application of 0.5% DNFB was applied (day 1). […] On day 12, mice were allowed to acclimate to a Plexiglas chamber for at least 30 mins before performing itch behavior test. Scratching behavior was recorded by a Panasonic video camera for a 30-min observation period. Hind limb scratching behavior directed toward the shaved area at the nape of neck was observed. One scratch is defined as a lifting of the hind limb toward the injection site and then a replacing of the limb back to the floor, regardless of how many scratching strokes take place between those two movements. Behavioral analysis was conducted by observers blinded to treatment procedure. DNFB-induced scratching behavior was recorded on day 12 for 1 h. […] Based on these findings, KP's anti-pruritic effects were assessed because inhibitory transmission in the SCDH plays an important role in chronic pruritus (Akiyama et al., 2015, Pain 156:1240-1246.; Bourane et al., 2015, Science 350:550-554; Braz et al., 2017, Prog Brain Res 231:87-105; Braz et al., 2014, J Clin Invest 124:3612-3616; Koch et al., 2018, Annual review of physiology 80:189-217; Mishra and Hoon, 2015, Handbook of experimental pharmacology 226:151-162).

[3] = system: delta-cat binding to KCC2 promoter; test: ChIP with anti-delta-cat antibody at KCC2 promoter; format: cell-based, rat; settings: KP-treatment vs vehicle
Protocol: ChIP assay was carried out as described previously (Yeo et al., 2009, J Neurosci 29:14652-14662; Yeo et al., 2013, Proc Natl Acad Sci USA 110:4315-4320). Primary cortical neurons (0.7×10^6) were used for each ChIP experiment. Cells were crosslinked with 1% formaldehyde for 30 min, washed twice with cold PBS, resuspended in lysis buffer [1% SDS, 10 mm EDTA, and 50 mm Tris-HCl, pH 8.0, with protease inhibitor cocktail (Roche)], and sonicated for 15 s pulses. The lysates were clarified by centrifugation at 10,000 rpm for 10 min at 4° C. in a microcentrifuge. One-tenth of the total lysate was used as input control of genomic DNA. Supernatants were collected and diluted in buffer (1% Triton X-100, 2 mm EDTA, 150 mm NaCl, 20 mm Tris-HCl, pH 8.0, and protease inhibitor cocktail) followed by immunoclearing with 1 mg of salmon sperm DNA, 10 ml of rabbit IgG, and 20 ml of protein A/G-Sepharose (Santa Cruz Biotechnology) for 1 h at 4° C. Immunoprecipitation was performed overnight at 4° C. with 2 mg of each specific antibody. Precipitates were washed sequentially for 10 min each in TSE1 buffer (0.1% SDS, 1% Triton X-100, 2 mm EDTA, 150 mm NaCl, and 20 mm Tris-HCl, pH 8.0), TSE2 (TSE1 with 500 mm NaCl), and TSE3 (0.25 m LiCl, 1% NP-40, 1% deoxycholate, 1 mm EDTA, and 10 mm Tris-HCl, pH 8.0). Precipitates were then washed twice with 10 mm Tris/0.1 mm EDTA, pH 7.8 and extracted with 1% SDS containing 0.1 m NaHCO3. Eluates were pooled and heated at 65° C. for 4 h to reverse formaldehyde crosslinking. DNA fragments were purified with Qiagen Qiaquick spin kit. For ChIP PCR, 1 l of a 25 l DNA extraction was used.
Consequently, catenins effects on the KCC2 promoter was explored.

O=C1Cc2c([nH]c3ccc(Br)cc23)-c2ccccc2N1 [kenpaullone, 9-bromo-7,12-dihydro-indolo [3,2-d] [1]benzazepin-6(5H)-one]
KCC2 chloride transporter mediated chloride efflux (neuronal [Cl—]i; KP vs vehicle at 10 min and 20 min time-points): does not enhance | neuronal [Cl—]i (neuronal [Cl—]i; clomeleon, after KP treatment vs vehicle): robustly and significantly reduced | time to enhanced KCC2 gene expression and KCC2 chloride extrusion function (neuronal [Cl—]i; rat neurons, FIG. 2D): ≤ 3 h | sensitized withdrawal thresholds to mechanical cues ([1]; KP 10 and 30 mg/kg, no significant difference between doses): significantly less sensitive | thermal pain threshold ([1]; both low and high dose KP): significantly less sensitive only at day 7 | scratching behavior of sensitized sites [2]: significantly reduced robust scratching behavior | binding of delta-cat to Kaiso1 site [3]: significantly reduced binding | binding of delta-cat to Kaiso2 site [3]: significantly increases binding | binding of delta-cat to TCF site [3]: non-significant increase
